Assay: xn = mol fraction of the nth substance listed

ClC(Cl)(Cl)Cl + ClCCCl
303.15 K, 101.3 kPa
Settings	viscosity [mPa·s]
x2 = 0.1081	0.7755
x2 = 0.1414	0.7609
x2 = 0.1994	0.739
x2 = 0.3171	0.7081
x2 = 0.3777	0.6975
x2 = 0.5001	0.6832
x2 = 0.5454	0.6817
x2 = 0.5978	0.6814
x2 = 0.6503	0.6809
x2 = 0.6758	0.6824
x2 = 0.7592	0.6879
x2 = 0.8193	0.6942
x2 = 0.8711	0.7016
x2 = 0.8965	0.7055
x2 = 0.934	0.7126

ClC(Cl)(Cl)Cl + Clc1ccccc1
298.15 K, 101 kPa
Settings	viscosity [mPa·s]
x2 = 0.2	0.844
x2 = 0.4	0.81
x2 = 0.6	0.787
x2 = 0.8	0.769

FCCl + FC(F)(Cl)C(F)(F)Cl
Settings	viscosity [mPa·s]
312.21 K, 101.13 kPa, x1 = 0.754	0.2322

CC1CCCCC1O (stereo not given) + NC1CCCCC1
viscosity [mPa·s], 100 kPa
Settings	x1 = 0.04642	x1 = 0.09319	x1 = 0.1878	x1 = 0.2839	x1 = 0.3814	x1 = 0.4805	x1 = 0.5811	x1 = 0.6834	x1 = 0.7872	x1 = 0.8928
293.15 K	2.657	2.965	3.533	4.632	5.819	7.685	11.76	15.63	20	27.62
298.15 K	2.328	2.582	3.048	3.894	4.852	6.53	9.343	12.39	15.17	19.95
303.15 K	2.057	2.27	2.656	3.351	4.096	5.343	7.677	9.722	11.73	14.98
308.15 K	1.833	2.008	2.335	3.042	3.498	4.468	6.235	7.748	9.687	11.45
313.15 K	1.645	1.791	2.068	2.65	3.018	3.782	5.118	6.295	7.365	8.876

ClC(Cl)(Cl)Cl + Nc1ccccc1
298.15 K, 101.32 kPa
Settings	viscosity [mPa·s]
x2 = 0.1018	0.991
x2 = 0.2047	1.111
x2 = 0.325	1.297
x2 = 0.3901	1.418
x2 = 0.4954	1.655
x2 = 0.5976	1.914
x2 = 0.7051	2.263
x2 = 0.8076	2.672
x2 = 0.9265	3.3

CCCCCCCCCCCCc1ccccc1S(=O)(=O)[O-].[Na+] + O
viscosity [mPa·s], 101 kPa
Settings	x1 = 5e-06	x1 = 1e-05	x1 = 2e-05	x1 = 2.2e-05	x1 = 2.7e-05	x1 = 3.2e-05	x1 = 3.8e-05	x1 = 4.3e-05	x1 = 4.9e-05	x1 = 5.4e-05
293.15 K	0.9811	0.9821	0.9837	0.9859	0.9881	0.9903	0.9919	0.9944	0.9974	1.001
298.15 K	0.8497	0.8508	0.8522	0.8544	0.8558	0.857	0.8582	0.86	0.8614	0.864
303.15 K	0.7683	0.7687	0.77	0.7718	0.7744	0.7763	0.7812	0.7864	0.796	0.7988
308.15 K	0.6924	0.6932	0.6943	0.6958	0.6979	0.7013	0.7051	0.7074	0.7106	0.7123
313.15 K	0.6075	0.609	0.6102	0.6121	0.6138	0.6167	0.6203	0.623	0.6242	0.6262

CCN(CC)CC + O
293.15 K, 100 kPa
Settings	viscosity [mPa·s]
x1 = 0.0049	1.176
x1 = 0.0095	1.323
x1 = 0.015	1.554
x2 = 0.1006	0.4211
x2 = 0.204	0.5113
x2 = 0.2996	0.6374
x2 = 0.4007	0.8296
x2 = 0.4997	1.135
x2 = 0.5997	1.614
x2 = 0.7028	2.385
x2 = 0.98	1.722

NCC(=O)N[C@@H](CCC(N)=O)C(=O)O + O
298.15 K, 101 kPa
Settings	viscosity [mPa·s]
x1 = 0.001798	0.937
x1 = 0.002695	0.96

NNC(=O)c1ccncc1 + O
viscosity [mPa·s]
Settings	298.15 K	303.15 K	308.15 K	313.15 K
100 kPa, x1 = 0.00051	–	–	0.7216	–
100 kPa, x1 = 0.000801	–	0.8033	0.724	–
100 kPa, x1 = 0.00109	0.9009	0.8061	0.7263	0.6588
100 kPa, x1 = 0.00153	0.9061	0.8104	0.7299	0.6617
101 kPa, x1 = 0.003	0.9182	–	0.7383	–

Source: the CheMixHub viscosity set
